The record followed here is patent US6548516B1, “1-(3-heteroarylpropyl- or -prop-2-enyl)-4-benzylpiperidines used as NMDA receptor antagonists” (Merck Patent GmbH, priority 1998, dated 2003).

What is called melting point is the temperature of the solid-liquid transition. Take `O=c1[nH]c2ccc(CCCN3CCC(Cc4ccc(F)cc4)CC3)cc2o1` [Example 1, 6-{3-[4-(4-fluorobenzyl)piperid-1-yl]propyl}-3H-benzoxazol-2-one]: the melting point lay within 105 to 107 °C.

`O=c1[nH]c2ccc(C=CCN3CCC(Cc4ccc(F)cc4)CC3)cc2o1` [Example 2, 6-{3-[4-(4-fluorobenzyl)piperid-1-yl]propenyl}-3H-benzoxazol-2-one] had a melting point of 202 to 203.5 °C.
